# Measurements taken from PMC11864979, “First-in-class ultralong-target-residence-time p38α inhibitors as a mitosis-targeted therapy for colorectal cancer” (Nature Cancer, 2025).
# Read-outs that look alike come from different tables or passages of the source.
# Assays:
# Experiment in all cases: selectivity profiling in a panel of 340 wild-type kinases (Reaction Biology Europe)
# Type in all cases: binding
# 340 wild-type kinases [1] = target: T1, 340 wild-type kinases (Homo sapiens, UniProt Q9UM73)
# T1 construct: purchased Reaction Biology Europe
# 340 wild-type kinases [2] = target: T2, 340 wild-type kinases (Homo sapiens, UniProt P42685)
# T2 construct: purchased Reaction Biology Europe
# 340 wild-type kinases [3] = target: T3, 340 wild-type kinases (Homo sapiens, UniProt P50750)
# T3 construct: purchased Reaction Biology Europe
# 340 wild-type kinases [4] = target: T4, 340 wild-type kinases (Homo sapiens, UniProt Q96SB4)
# T4 construct: purchased Reaction Biology Europe
# 340 wild-type kinases [5] = target: T5, 340 wild-type kinases (Homo sapiens, UniProt Q16620)
# T5 construct: purchased Reaction Biology Europe
# 340 wild-type kinases [6] = target: T6, 340 wild-type kinases (Homo sapiens, UniProt Q13627)
# T6 construct: purchased Reaction Biology Europe
# 340 wild-type kinases [7] = target: T7, 340 wild-type kinases (Homo sapiens, UniProt P16591)
# T7 construct: purchased Reaction Biology Europe
# 340 wild-type kinases [8] = target: T8, 340 wild-type kinases (Homo sapiens, UniProt Q9HBH9)
# T8 construct: purchased Reaction Biology Europe
# 340 wild-type kinases [9] = target: T9, 340 wild-type kinases (Homo sapiens, UniProt P78527)
# T9 construct: purchased Reaction Biology Europe
# 340 wild-type kinases [10] = target: T10, 340 wild-type kinases (Homo sapiens, UniProt Q15349)
# T10 construct: purchased Reaction Biology Europe
# 340 wild-type kinases [11] = target: T11, 340 wild-type kinases (Homo sapiens, UniProt Q9H2G2)
# T11 construct: purchased Reaction Biology Europe
# 340 wild-type kinases [12] = target: T12, 340 wild-type kinases (Homo sapiens, UniProt Q08881)
# T12 construct: purchased Reaction Biology Europe
# T12 sequence (Q08881 1-620): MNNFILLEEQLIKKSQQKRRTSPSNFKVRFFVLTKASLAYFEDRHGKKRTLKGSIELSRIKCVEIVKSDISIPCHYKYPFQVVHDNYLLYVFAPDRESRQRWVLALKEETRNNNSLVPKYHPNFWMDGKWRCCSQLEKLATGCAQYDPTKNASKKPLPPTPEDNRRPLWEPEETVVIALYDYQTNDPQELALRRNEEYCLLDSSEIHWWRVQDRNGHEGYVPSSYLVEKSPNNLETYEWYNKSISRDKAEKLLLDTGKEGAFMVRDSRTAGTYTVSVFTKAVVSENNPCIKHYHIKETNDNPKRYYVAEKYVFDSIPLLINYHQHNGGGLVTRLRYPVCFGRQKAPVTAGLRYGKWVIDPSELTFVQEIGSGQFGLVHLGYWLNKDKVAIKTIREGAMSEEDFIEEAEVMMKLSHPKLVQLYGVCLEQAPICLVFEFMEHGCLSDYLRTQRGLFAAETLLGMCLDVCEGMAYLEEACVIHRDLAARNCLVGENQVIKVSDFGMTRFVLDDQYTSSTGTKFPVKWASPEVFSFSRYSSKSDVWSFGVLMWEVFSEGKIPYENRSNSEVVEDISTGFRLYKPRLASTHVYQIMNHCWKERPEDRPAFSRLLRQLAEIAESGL
# 340 wild-type kinases [13] = target: T13, 340 wild-type kinases (Homo sapiens, UniProt Q7KZI7)
# T13 construct: purchased Reaction Biology Europe
# T13 sequence (Q7KZI7 whole entry): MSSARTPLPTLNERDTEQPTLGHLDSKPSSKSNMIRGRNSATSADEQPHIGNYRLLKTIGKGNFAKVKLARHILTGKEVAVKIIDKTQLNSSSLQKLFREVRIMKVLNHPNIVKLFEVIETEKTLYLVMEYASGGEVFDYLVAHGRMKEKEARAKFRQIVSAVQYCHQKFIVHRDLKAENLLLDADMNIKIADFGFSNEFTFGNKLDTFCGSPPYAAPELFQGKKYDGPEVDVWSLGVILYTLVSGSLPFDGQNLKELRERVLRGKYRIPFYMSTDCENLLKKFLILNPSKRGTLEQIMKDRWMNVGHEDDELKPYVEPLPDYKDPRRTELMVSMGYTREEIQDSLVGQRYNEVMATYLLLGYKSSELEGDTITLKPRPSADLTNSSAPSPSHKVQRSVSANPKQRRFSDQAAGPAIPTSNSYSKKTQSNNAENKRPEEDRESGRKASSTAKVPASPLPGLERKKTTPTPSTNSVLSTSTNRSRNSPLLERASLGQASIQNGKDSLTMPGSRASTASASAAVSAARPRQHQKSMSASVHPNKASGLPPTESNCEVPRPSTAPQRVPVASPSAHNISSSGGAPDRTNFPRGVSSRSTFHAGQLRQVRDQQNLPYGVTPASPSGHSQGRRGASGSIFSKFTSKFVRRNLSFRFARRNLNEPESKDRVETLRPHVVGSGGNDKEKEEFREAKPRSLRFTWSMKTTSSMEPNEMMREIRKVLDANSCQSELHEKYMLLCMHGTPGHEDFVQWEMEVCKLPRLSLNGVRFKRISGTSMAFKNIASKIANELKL
# T1 sequence (Q9UM73 19-1620): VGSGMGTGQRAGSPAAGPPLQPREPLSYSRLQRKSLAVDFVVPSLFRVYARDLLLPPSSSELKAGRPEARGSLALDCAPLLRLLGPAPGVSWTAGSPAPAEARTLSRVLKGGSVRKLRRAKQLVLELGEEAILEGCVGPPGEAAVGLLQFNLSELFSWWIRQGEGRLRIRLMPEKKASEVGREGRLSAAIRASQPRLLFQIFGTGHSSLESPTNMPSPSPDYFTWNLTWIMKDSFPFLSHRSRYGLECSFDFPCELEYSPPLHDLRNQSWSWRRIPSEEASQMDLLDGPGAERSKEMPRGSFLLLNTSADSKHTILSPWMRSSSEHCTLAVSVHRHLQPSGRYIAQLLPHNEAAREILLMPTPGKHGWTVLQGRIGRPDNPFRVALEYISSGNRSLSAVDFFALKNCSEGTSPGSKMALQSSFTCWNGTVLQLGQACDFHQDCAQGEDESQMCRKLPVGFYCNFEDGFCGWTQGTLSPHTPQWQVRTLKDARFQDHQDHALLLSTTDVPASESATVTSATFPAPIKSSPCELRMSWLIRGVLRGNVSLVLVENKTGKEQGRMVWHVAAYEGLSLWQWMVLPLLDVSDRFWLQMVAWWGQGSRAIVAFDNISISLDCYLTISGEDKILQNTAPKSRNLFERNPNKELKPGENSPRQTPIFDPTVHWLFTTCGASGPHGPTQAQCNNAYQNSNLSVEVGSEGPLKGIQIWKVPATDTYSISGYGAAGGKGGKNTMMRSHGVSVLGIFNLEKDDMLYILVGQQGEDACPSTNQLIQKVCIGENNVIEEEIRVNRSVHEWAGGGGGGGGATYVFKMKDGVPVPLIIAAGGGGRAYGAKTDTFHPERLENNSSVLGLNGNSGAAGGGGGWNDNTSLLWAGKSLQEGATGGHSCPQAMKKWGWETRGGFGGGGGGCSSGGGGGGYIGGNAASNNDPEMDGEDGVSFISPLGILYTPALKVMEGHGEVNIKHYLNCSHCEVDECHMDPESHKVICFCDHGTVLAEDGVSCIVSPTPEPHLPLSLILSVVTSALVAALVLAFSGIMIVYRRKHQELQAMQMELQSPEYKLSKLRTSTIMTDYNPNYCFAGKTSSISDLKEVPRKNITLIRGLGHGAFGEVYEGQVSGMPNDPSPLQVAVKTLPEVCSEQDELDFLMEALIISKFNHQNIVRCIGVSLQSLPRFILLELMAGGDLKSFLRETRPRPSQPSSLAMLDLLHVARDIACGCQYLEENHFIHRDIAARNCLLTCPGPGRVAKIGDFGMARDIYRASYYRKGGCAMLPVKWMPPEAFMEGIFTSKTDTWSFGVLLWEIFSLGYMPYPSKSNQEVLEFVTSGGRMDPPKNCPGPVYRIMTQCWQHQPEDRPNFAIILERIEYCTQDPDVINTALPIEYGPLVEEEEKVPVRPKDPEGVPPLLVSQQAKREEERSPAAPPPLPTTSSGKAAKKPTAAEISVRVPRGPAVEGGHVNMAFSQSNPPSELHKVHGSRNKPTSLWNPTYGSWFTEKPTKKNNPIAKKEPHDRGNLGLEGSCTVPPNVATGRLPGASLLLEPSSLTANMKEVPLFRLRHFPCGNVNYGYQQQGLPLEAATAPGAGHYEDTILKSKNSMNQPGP
# T11 sequence (Q9H2G2 whole entry): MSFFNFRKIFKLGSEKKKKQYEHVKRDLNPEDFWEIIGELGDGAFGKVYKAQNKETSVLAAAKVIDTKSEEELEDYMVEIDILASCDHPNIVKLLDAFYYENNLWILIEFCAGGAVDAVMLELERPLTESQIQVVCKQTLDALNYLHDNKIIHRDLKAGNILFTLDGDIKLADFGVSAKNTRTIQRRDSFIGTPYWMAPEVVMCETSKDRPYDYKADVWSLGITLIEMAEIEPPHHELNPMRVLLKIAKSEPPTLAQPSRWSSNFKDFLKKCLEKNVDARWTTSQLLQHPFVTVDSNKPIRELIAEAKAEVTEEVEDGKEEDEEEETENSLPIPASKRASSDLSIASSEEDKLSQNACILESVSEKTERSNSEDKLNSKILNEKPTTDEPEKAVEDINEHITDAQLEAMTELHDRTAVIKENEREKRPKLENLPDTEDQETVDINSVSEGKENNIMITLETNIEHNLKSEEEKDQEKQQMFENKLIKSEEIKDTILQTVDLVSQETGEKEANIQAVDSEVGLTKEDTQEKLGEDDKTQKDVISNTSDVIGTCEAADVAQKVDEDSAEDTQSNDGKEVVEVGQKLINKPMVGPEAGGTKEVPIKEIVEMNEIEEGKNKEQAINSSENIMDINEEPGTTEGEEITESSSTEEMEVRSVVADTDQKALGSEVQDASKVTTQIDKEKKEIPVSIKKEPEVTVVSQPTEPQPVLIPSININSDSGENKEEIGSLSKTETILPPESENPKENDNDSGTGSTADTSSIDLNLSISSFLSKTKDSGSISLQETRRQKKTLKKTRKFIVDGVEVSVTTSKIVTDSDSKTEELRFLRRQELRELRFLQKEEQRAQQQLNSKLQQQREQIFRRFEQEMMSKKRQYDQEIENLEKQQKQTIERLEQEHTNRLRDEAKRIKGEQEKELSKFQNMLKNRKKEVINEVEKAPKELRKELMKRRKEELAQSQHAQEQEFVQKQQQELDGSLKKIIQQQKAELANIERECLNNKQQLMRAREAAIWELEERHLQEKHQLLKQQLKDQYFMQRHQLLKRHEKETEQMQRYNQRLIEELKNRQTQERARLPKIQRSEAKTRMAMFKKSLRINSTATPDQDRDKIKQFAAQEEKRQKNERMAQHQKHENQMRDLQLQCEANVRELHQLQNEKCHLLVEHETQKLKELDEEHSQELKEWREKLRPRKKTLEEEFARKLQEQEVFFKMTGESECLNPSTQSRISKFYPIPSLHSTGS
# T8 sequence (Q9HBH9 whole entry): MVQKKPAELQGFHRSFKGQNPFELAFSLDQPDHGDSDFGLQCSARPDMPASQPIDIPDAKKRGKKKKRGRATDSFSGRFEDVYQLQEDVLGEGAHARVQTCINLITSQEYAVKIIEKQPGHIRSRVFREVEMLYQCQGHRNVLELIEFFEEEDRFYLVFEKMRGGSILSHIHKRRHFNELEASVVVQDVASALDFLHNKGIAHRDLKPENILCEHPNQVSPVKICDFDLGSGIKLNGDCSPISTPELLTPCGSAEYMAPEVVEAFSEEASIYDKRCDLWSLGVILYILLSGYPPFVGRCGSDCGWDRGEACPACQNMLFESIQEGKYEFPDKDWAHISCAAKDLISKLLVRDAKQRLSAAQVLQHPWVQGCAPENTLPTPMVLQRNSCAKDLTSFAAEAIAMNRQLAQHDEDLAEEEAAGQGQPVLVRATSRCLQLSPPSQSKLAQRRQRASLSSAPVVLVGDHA
# T2 sequence (P42685 whole entry): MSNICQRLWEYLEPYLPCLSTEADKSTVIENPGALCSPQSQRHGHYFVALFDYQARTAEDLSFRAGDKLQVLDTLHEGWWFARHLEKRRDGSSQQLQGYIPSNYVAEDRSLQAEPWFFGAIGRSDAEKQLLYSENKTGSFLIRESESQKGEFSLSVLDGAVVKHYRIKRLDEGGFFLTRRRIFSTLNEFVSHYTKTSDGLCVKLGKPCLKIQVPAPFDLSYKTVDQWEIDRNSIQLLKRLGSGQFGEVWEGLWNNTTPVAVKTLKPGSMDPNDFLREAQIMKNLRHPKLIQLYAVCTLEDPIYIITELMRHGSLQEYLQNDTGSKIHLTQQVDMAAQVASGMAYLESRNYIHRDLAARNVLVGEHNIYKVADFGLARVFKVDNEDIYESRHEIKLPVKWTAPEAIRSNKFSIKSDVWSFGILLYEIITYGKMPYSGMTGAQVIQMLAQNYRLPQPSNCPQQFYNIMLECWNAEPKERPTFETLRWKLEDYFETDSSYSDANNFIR
# T3 sequence (P50750 whole entry): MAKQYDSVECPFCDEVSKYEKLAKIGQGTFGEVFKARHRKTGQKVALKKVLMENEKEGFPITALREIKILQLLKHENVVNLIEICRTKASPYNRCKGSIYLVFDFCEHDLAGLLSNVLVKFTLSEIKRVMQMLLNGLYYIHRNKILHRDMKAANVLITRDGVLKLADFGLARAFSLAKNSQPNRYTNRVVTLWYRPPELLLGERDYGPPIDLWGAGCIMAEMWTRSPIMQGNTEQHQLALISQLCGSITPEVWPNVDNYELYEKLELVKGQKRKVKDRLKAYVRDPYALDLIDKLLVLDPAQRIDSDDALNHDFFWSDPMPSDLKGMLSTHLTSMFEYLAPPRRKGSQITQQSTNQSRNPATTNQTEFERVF
smiles,measurement,setting,value
CNC(=O)c1ccc2c(c1)C(=O)c1ccc(Nc3ccc(F)c(NC(=O)C4CC4)c3)cc1CC2 [Compound 2015],remaining activity at 0.2 µM,"340 wild-type kinases [1]; 0.2 µM 2015, read-out: ALK residual activity",95.3%
same,remaining activity at 1 µM,"340 wild-type kinases [1]; 1 µM 2015, read-out: ALK residual activity",86.8%
same,remaining activity at 0.2 µM,"340 wild-type kinases [1]; ALK, 0.2 µM, read-out: residual activity",95.3%
same,remaining activity at 1 µM,"340 wild-type kinases [1]; ALK, 1 µM, read-out: residual activity",86.8%
same,remaining activity at 0.2 µM,"340 wild-type kinases [2]; 0.2 µM 2015, read-out: FRK residual activity",126%
same,remaining activity at 1 µM,"340 wild-type kinases [2]; 1 µM 2015, read-out: FRK residual activity",110%
same,remaining activity at 0.2 µM,"340 wild-type kinases [2]; FRK, 0.2 µM, read-out: residual activity",126%
same,remaining activity at 1 µM,"340 wild-type kinases [2]; FRK, 1 µM, read-out: residual activity",110%
same,remaining activity at 0.2 µM,"340 wild-type kinases [3]; 0.2 µM 2015, read-out: CDK9/CycK residual activity",94.2%
same,remaining activity at 0.2 µM,"340 wild-type kinases [3]; 0.2 µM 2015, read-out: CDK9/CycT1 residual activity",107%
same,remaining activity at 1 µM,"340 wild-type kinases [3]; 1 µM 2015, read-out: CDK9/CycK residual activity",95.1%
same,remaining activity at 1 µM,"340 wild-type kinases [3]; 1 µM 2015, read-out: CDK9/CycT1 residual activity",94%
same,remaining activity at 0.2 µM,"340 wild-type kinases [3]; CDK9/CycK, 0.2 µM, read-out: residual activity",94.2%
same,remaining activity at 1 µM,"340 wild-type kinases [3]; CDK9/CycK, 1 µM, read-out: residual activity",95.2%
same,remaining activity at 0.2 µM,"340 wild-type kinases [3]; CDK9/CycT1, 0.2 µM, read-out: residual activity",107%
same,remaining activity at 1 µM,"340 wild-type kinases [3]; CDK9/CycT1, 1 µM, read-out: residual activity",94%
same,remaining activity at 0.2 µM,"340 wild-type kinases [4]; 0.2 µM 2015, read-out: SRPK1 residual activity",108%
same,remaining activity at 1 µM,"340 wild-type kinases [4]; 1 µM 2015, read-out: SRPK1 residual activity",105%
same,remaining activity at 0.2 µM,"340 wild-type kinases [4]; SRPK1, 0.2 µM, read-out: residual activity",108%
same,remaining activity at 1 µM,"340 wild-type kinases [4]; SRPK1, 1 µM, read-out: residual activity",105%
same,remaining activity at 0.2 µM,"340 wild-type kinases [5]; 0.2 µM 2015, read-out: TRKB residual activity",99.7%
same,remaining activity at 1 µM,"340 wild-type kinases [5]; 1 µM 2015, read-out: TRKB residual activity",91.3%
same,remaining activity at 0.2 µM,"340 wild-type kinases [5]; TRKB, 0.2 µM, read-out: residual activity",99.7%
same,remaining activity at 1 µM,"340 wild-type kinases [5]; TRKB, 1 µM, read-out: residual activity",91.3%
same,remaining activity at 0.2 µM,"340 wild-type kinases [6]; 0.2 µM 2015, read-out: DYRK1A residual activity",86.7%
same,remaining activity at 1 µM,"340 wild-type kinases [6]; 1 µM 2015, read-out: DYRK1A residual activity",90.3%
same,remaining activity at 0.2 µM,"340 wild-type kinases [6]; DYRK1A, 0.2 µM, read-out: residual activity",86.8%
same,remaining activity at 1 µM,"340 wild-type kinases [6]; DYRK1A, 1 µM, read-out: residual activity",90.3%
same,remaining activity at 0.2 µM,"340 wild-type kinases [7]; 0.2 µM 2015, read-out: FER residual activity",125%
same,remaining activity at 1 µM,"340 wild-type kinases [7]; 1 µM 2015, read-out: FER residual activity",102%
same,remaining activity at 0.2 µM,"340 wild-type kinases [7]; FER, 0.2 µM, read-out: residual activity",125%
same,remaining activity at 1 µM,"340 wild-type kinases [7]; FER, 1 µM, read-out: residual activity",102%
same,remaining activity at 0.2 µM,"340 wild-type kinases [8]; 0.2 µM 2015, read-out: MKNK2 residual activity",105%
same,remaining activity at 1 µM,"340 wild-type kinases [8]; 1 µM 2015, read-out: MKNK2 residual activity",102%
same,remaining activity at 0.2 µM,"340 wild-type kinases [8]; MKNK2, 0.2 µM, read-out: residual activity",105%
same,remaining activity at 1 µM,"340 wild-type kinases [8]; MKNK2, 1 µM, read-out: residual activity",102%
same,remaining activity at 0.2 µM,"340 wild-type kinases [9]; 0.2 µM 2015, read-out: DNAPK residual activity",111%
same,remaining activity at 1 µM,"340 wild-type kinases [9]; 1 µM 2015, read-out: DNAPK residual activity",99.6%
same,remaining activity at 0.2 µM,"340 wild-type kinases [9]; DNAPK, 0.2 µM, read-out: residual activity",111%
same,remaining activity at 1 µM,"340 wild-type kinases [9]; DNAPK, 1 µM, read-out: residual activity",99.6%
same,remaining activity at 0.2 µM,"340 wild-type kinases [10]; 0.2 µM 2015, read-out: RPS6KA2 residual activity",84.7%
same,remaining activity at 1 µM,"340 wild-type kinases [10]; 1 µM 2015, read-out: RPS6KA2 residual activity",91%
same,remaining activity at 0.2 µM,"340 wild-type kinases [10]; RPS6KA2, 0.2 µM, read-out: residual activity",84.7%
same,remaining activity at 1 µM,"340 wild-type kinases [10]; RPS6KA2, 1 µM, read-out: residual activity",91%
same,remaining activity at 0.2 µM,"340 wild-type kinases [11]; 0.2 µM 2015, read-out: SLK residual activity",75%
same,remaining activity at 1 µM,"340 wild-type kinases [11]; 1 µM 2015, read-out: SLK residual activity",75.3%
same,remaining activity at 0.2 µM,"340 wild-type kinases [11]; SLK, 0.2 µM, read-out: residual activity",75%
same,remaining activity at 1 µM,"340 wild-type kinases [11]; SLK, 1 µM, read-out: residual activity",75.3%
same,remaining activity at 0.2 µM,"340 wild-type kinases [12]; 0.2 µM 2015, read-out: ITK residual activity",89.4%
same,remaining activity at 1 µM,"340 wild-type kinases [12]; 1 µM 2015, read-out: ITK residual activity",87%
same,remaining activity at 0.2 µM,"340 wild-type kinases [12]; ITK, 0.2 µM, read-out: residual activity",89.4%
same,remaining activity at 1 µM,"340 wild-type kinases [12]; ITK, 1 µM, read-out: residual activity",87%
same,remaining activity at 0.2 µM,"340 wild-type kinases [13]; 0.2 µM 2015, read-out: MARK2 residual activity",101%
same,remaining activity at 1 µM,"340 wild-type kinases [13]; 1 µM 2015, read-out: MARK2 residual activity",99.5%
same,remaining activity at 0.2 µM,"340 wild-type kinases [13]; MARK2, 0.2 µM, read-out: residual activity",101%
same,remaining activity at 1 µM,"340 wild-type kinases [13]; MARK2, 1 µM, read-out: residual activity",99.5%
